The supplement of paper PMC10307832

Columns and labels:
Experiment in all cases: relative viability (nuclei count vs DMSO), 5 days (fraction); higher = more cells survive
Selisistat + Decitabine = compound: C1CC(C2=C(C1)C3=C(N2)C=CC(=C3)Cl)C(=O)N [Selisistat] + Nc1ncn([C@H]2C[C@H](O)[C@@H](CO)O2)c(=O)n1 [Decitabine] (partner 2 µM)
In short: (§1)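 Lung cancer cell lines, seeded in 1536-well plates, were treated the following day by pin tool with a single drug or with five library-drug doses (not always all listed) in √10 steps on top of a fixed anchor-drug dose. Cells were fixed and nuclei stained in one step after 5 days, and nuclei were counted. Relative viability is the nuclei count for treated wells divided by that for vehicle wells, reported as medians of duplicate plates.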

Selisistat + Vorinostat = compound: C1CC(C2=C(C1)C3=C(N2)C=CC(=C3)Cl)C(=O)N [Selisistat] + O=C(CCCCCCC(=O)Nc1ccccc1)NO [Vorinostat] (partner 1 µM)
In short: as §1

Serdemetan + Lapatinib = compound: c1ccc2c(CCNc3ccc(Nc4ccncc4)cc3)c[nH]c2c1 [Serdemetan] + CS(=O)(=O)CCNCc1ccc(-c2ccc3ncnc(Nc4ccc(OCc5cccc(F)c5)c(Cl)c4)c3c2)o1 [Lapatinib] (partner 2 µM)
In short: as §1

Serdemetan + Alpelisib = compound: c1ccc2c(CCNc3ccc(Nc4ccncc4)cc3)c[nH]c2c1 [Serdemetan] + Cc1nc(NC(=O)N2CCC[C@H]2C(N)=O)sc1-c1ccnc(C(C)(C)C(F)(F)F)c1 [Alpelisib] (partner 2 µM)
In short: as §1

Row | Cell Line | relative viability (Selisistat + Decitabine; first compound 0.4 µM) | relative viability (Selisistat + Decitabine; first compound 1.265 µM) | relative viability (Selisistat + Decitabine; first compound 4 µM) | relative viability (Selisistat + Decitabine; first compound 12.65 µM) | relative viability (Selisistat + Decitabine; first compound 40 µM) | relative viability (Selisistat + Vorinostat; first compound 0.4 µM) | relative viability (Selisistat + Vorinostat; first compound 1.265 µM) | relative viability (Selisistat + Vorinostat; first compound 4 µM) | relative viability (Selisistat + Vorinostat; first compound 12.65 µM) | relative viability (Selisistat + Vorinostat; first compound 40 µM) | relative viability (Serdemetan + Lapatinib; first compound 0.04 µM) | relative viability (Serdemetan + Lapatinib; first compound 0.1265 µM) | relative viability (Serdemetan + Lapatinib; first compound 0.4 µM) | relative viability (Serdemetan + Lapatinib; first compound 1.265 µM) | relative viability (Serdemetan + Lapatinib; first compound 4 µM) | relative viability (Serdemetan + Alpelisib; first compound 0.04 µM) | relative viability (Serdemetan + Alpelisib; first compound 0.1265 µM) | relative viability (Serdemetan + Alpelisib; first compound 0.4 µM) | relative viability (Serdemetan + Alpelisib; first compound 1.265 µM) | relative viability (Serdemetan + Alpelisib; first compound 4 µM)
1 | HOP-62 | 0.22 | 0.211 | 0.215 | 0.227 | 0.192 | 0.604 | 0.783 | 0.735 | 0.613 | 0.923 | 0.862 | 1.06 | 0.937 | 0.791 | 0.89 | 0.966 | 0.914 | 0.947 | 0.76 | 0.841
2 | LC-2-ad | 0.909 | 0.797 | 0.764 | 0.821 | 0.775 | 0.769 | 0.704 | 0.774 | 0.806 | 0.764 | 0.916 | 1 | 0.954 | – | 0.913 | 0.987 | 0.804 | 0.803 | – | 0.806
3 | LCLC-97TM1 | 0.24 | 0.219 | – | 0.245 | 0.29 | 0.646 | 0.72 | – | 0.597 | 0.75 | 0.776 | 1.16 | 1.11 | 0.674 | 0.87 | 0.258 | 0.203 | 0.241 | 0.225 | 0.202
4 | LK-2 | 0.397 | 0.307 | 0.198 | 0.34 | 0.294 | 0.396 | 0.308 | 0.376 | 0.339 | 0.365 | 0.899 | 0.873 | 1.03 | 0.884 | 0.757 | 1.1 | 1.28 | 1.25 | 1.06 | 0.652
5 | LOU-NH91 | 0.815 | 0.795 | 0.784 | 0.787 | 0.788 | 0.962 | 0.919 | 0.824 | 0.835 | 0.959 | 0.773 | 0.83 | – | 0.606 | 0.83 | 0.741 | 0.677 | – | 0.761 | 0.679
6 | LU99A | 0.947 | 0.928 | 0.847 | 0.792 | 0.907 | 0.514 | 0.5 | 0.6 | 0.51 | 0.558 | 1.03 | 0.927 | 1.07 | 0.363 | 0.229 | 0.516 | 0.576 | 0.342 | 0.175 | 0.17
7 | LXF-289 | 0.425 | 0.379 | 0.337 | 0.355 | 0.431 | 0.78 | 0.83 | 0.753 | 0.799 | 0.961 | 0.857 | 0.885 | 0.851 | 0.827 | 0.759 | 1.02 | 1.01 | 0.937 | 0.844 | 0.844
8 | NCI-H23 | 0.303 | 0.32 | – | 0.328 | 0.355 | 0.647 | 0.597 | – | 0.663 | 0.802 | 1.11 | 1.19 | 1.13 | 0.818 | 1.07 | 0.674 | 0.682 | 0.577 | 0.538 | 0.596
9 | NCI-H322M | 0.812 | 0.708 | – | 0.747 | 0.637 | 0.857 | 0.921 | – | 0.893 | 1.02 | 0.577 | 0.585 | 0.546 | 0.546 | 0.562 | 0.853 | 0.875 | 0.838 | 0.755 | 0.75
